Assay results: patent US20260242390A1, “TOTAL SYNTHESES OF PORTIMINE A AND ANALOGUES THEREOF AS SMALL MOLECULE MODULATORS OF NMD3” (priority 2023, published 2026)

Legend:
Jurkat cells = experiment: Cell cycle analysis, propidium iodide flow cytometry; assay type: cell-based, human; settings: for G2M/sub-G1 (mostly apoptotic cells) / S phase entry: Jurkat cells, 10 nM treatment, 24 hr
Experimental: FIG. 2. […] Cell cycle analysis in Jurkat cells. Jurkat cells were treated with 10 nM of indicated compounds for 24 hours, and propodium iodide was used to identify different stages of cells by flow cytometry.
FIG. 6. Portimine A inhibits S phase entry in Jurkat cells. Portimine A downregulates NMD3 at protein level but upregulates in mRNA level in cells, as well as some essential apoptosis proteins. […] Protein degradation of p53, Mcl1, Bid, Bim, Noxa can be rescued by MG132 or Epoxomicin. (B) NMD3 mRNA increased after PA treatment, but not ePA control compound. Jurkat cells were treated with indicated compounds for 24 hr; Cells were then fixed and perform Propidium Iodide staining.
• 1) Portimine A and its functional analogs show stereo-selective acute toxicity in cancer cells (FIG. 1). […] (B) Structure of portimine related analogs: phenyl-portimine A (Ph-PA, 36) and epi-portimine A (ePA, 38). Structure of fully functionalized portimine A-based epimeric probe pair: portimine A-diazirine-alkyne (PA-DA, 35-2) and epi-portimine A-diazirine-alkyne (ePA-DA, 35-1). (C) Cell viability analysis of portimine A and analogs. Jurkat cells were treated with increasing concentrations of portimine A and analogs for 24 hours. All presented data as mean of biological replicated experiments (n=3). […] Jurkat cells were treated with portimine A or analogs for 12 hours at 10 nM. […] Structurally related negative control ePA and PB are non-toxic in all cell types in the current concentrate range. PBMCs (25k per well), Jurkat (10k per well). […] Cell cycle analysis in Jurkat cells (FIG. 2). Jurkat cells were treated with 10 nM of indicated compounds for 24 hours, and propodium iodide was used to identify different stages of cells by flow cytometry. […] (A) PA and Ph-PA show less toxic to healthy PBMCs compared to Jurkat cells. […] (B) Immunoblot of caspase-3 in Jurkat and PBMCs with indicated conditions. […] (A) Pharmacokinetic studies of mouse intraperitoneal (i.p.) and oral (p.o.) administration for portimine (n=3). […] Impact of PA [0.3 or 1 mg/kg intraperitoneally] on MC38 tumor growth in WT mice (n=6). (C) Kaplan-Myer survival curve of WT MC38 tumor-bearing mice (n=6) after treatment with PA as described in (D). Mice were euthanized when tumor area exceeded 2000 mm^3. Statistical analysis was performed using ANOVA analysis followed by multiple comparisons test, * p≤0.05. Treatment condition: Jurkat (60 M per condition); PA-DA/ePA-DA concentration: 0.5 uM, PA or ePA: 5 uM; Incubate with probe with or without competitors (PA, ePA) for 30 min; UV irradiated for 20 min. (0.5 uM PA-DA add a no-UV condition), Standard pulldown & biotin-enrichment and western blot analysis (Elute condition: 2× sample buffer+500 uM biotin, boil for 20 mins); Primary antibody NMD3 (ProteinTech, 1:150), Actin (BioRad, 1:10000). […] Chemical proteomic profiling with PA-DA in Jurkat cells (A, B, C, G) and HCC1806 cells (D, E, F, H) show NMD3 is the primary target candidate of portimine A. Volcano plot in panels A and D show protein competition in cells treated with active photoaffinity probe PA-DA (500 nM) and DMSO or the active competitor portimine A (PA, […]), dotted lines indicate threshold of fold change <4, p-value>0.05. […] (I, J) Confirmation of PA-DA engagement of NMD3 in Jurkat and HCC1806 cells. […] Treatment condition: Jurkat (5M per well). Portimine A concentration: 2 nM-1000 nM; In total treat cell for 12 hours. […] Protein degradation of p53, Mcl1, Bid, Bim, Noxa can be rescued by MG132 or Epoxomicin. […]

U87EGFRvIII = experiment: Broad cell line profiling, U87EGFRvIII; assay type: cell-based; settings: Homo sapiens, EGFRvIII Expressing Glioblastoma, read-out: PA IC50
Description: (§1) • A panel of human and mouse cancer cell types used to assess the breadth of PA activity, including multiple therapy resistant metastatic mesenchymal tumor cell lines and primary glioblastoma patient-derived metastatic stem/tumor initiating cell populations.

GBM-A = experiment: Broad cell line profiling, GBM-A; assay type: cell-based; settings: Homo sapiens, Glioblastoma Cancer Stem Cell, read-out: PA IC50
Description: as §1

GBM-F = experiment: Broad cell line profiling, GBM-F; assay type: cell-based; settings: Homo sapiens, Glioblastoma Cancer Stem Cell, read-out: PA IC50
Description: as §1

SMILES	G2M/sub-G1 (mostly apoptotic cells) (Jurkat cells)	S phase entry (Jurkat cells)	IC50 (U87EGFRvIII)	IC50 (GBM-A)	IC50 (GBM-F)	cell cycle arrest in Jurkat cells (Jurkat cells; 10 nM, 24 hours)
C#CCCC1(CCNC(=O)c2ccc(C3=C[C@@H]4[C@@H]5O[C@]6(CC[C@H](O6)C(C)C[C@@H](O)C5=O)CC(O)C5=NCC[C@@]54CC3)cc2)N=N1 (some centres unmarked) [PA-DA, portimine A-diazirine-alkyne]	does not affect	inhibited				
C=CC1=C[C@@H]2[C@@H]3O[C@]4(CC[C@H](O4)C(C)C[C@@H](O)C3=O)CC(O)C3=NCC[C@@]32CC1 (some centres unmarked) [PA, portimine A]	does not affect	inhibited	3.4 nM	2.6 nM	2.6 nM	triggers cell cycle arrest
